Results from patent US12064479B2, “Lipid nanoparticles for delivery of nucleic acids and methods of use thereof” (Akagera Medicines, Inc., priority 2022, dated 2024).

How the values were obtained:
Format in all cases: physicochemical
[1] = Oxidative stability of ICLs and liposomes under accelerated oxidation (H2O2/Fe(III)Cl, UHPLC-CAD), Example 18; details: ICL lipid suspensions, 1% H2O2/100 μM Fe(III)Cl, 37° C.
Experimental: Individual lipid stocks (10 mM) were prepared in ethanol and stored at −20° C. […] Liposomal formulations based on AKG-UO-1 and O-11769 ionizable cationic lipids (Table 12) were prepared by combining lipid mixtures of desired composition in 1 mL ethanol with 3 mL 6.25 mM sodium acetate, pH 5.0 at 6 mL/min on a NanoAssemblr (Precision Nanosystems). 3.6 mL of the mixture was retained, while the initial 0.35 mL of the mixture and final 0.05 mL were discarded. Ethanol was removed by buffer exchange into PBS, pH 7.4 by concentrating each liposome preparation using an Aminon-Ultra 4 centrifugal concentrator at 500 g for 10 min at 4° C. and diluting back to the original volume with PBS. This cycle was repeated multiple times until the ethanol concentration was <1%. Finally, liposomes were sterile filtered through 0.2 μm PES (Nalgene) syringe filters and size measured by a ZetaSizer (Malvern).
Aliquots of the liposomal formulations were stored at −80° C. and thawed before the experiment. A combined stock in water of 10% H2O2 (Sigma-Aldrich, cat #H1009) and 1 mM of Fe(III)Cl (Sigma-Aldrich, cat #372870) was freshly prepared prior to the treatment. To make 1% final concentration of H2O2 and 100 μM Fe(III)Cl, 10 μl of 10% H2O2/1 mM Fe(III)Cl stock was added to 90 μl of both liposomal formulations and individual lipids The liposomes and individual lipids were incubated with H2O2/Fe(III)Cl at 37° C. and then 5 μl from each sample was taken at different time points (0, 3, 24, 48 and 72 hours) and dissolved in 90 μl of MeOH for HPLC analysis. Degradation of the main lipid peak was analyzed using Thermo Scientific Vanquish Flex UHPLC occupied with Charged Aerosol Detector (CAD) and Thermo Scientific Accucore™ C18+ UHPLC column (L=50 mm, D=2.1 mm, Particle Size=1.5 μm).
The data are presented as a percentage of the main lipid pea measure at different time points relative to the lipid peak measured at time zero.

[2] = Stability of ionizable cationic lipids under accelerated oxidation (H2O2/Fe(III)Cl, UHPLC-CAD), Example 29; details: for % of main lipid peak to To, 24 h.: individual lipids 0.5 mM; for % of main lipid peak to To, 24 h. / % of main lipid peak to To, 48 h. / % of main lipid peak to To, 72 h.: 1% H2O2/100 μM Fe(III)Cl, 37° C.; for % of main lipid peak to To, 48 h. / % of main lipid peak to To, 72 h.: individual lipids
Experimental: Ethanol (Sigma-Aldrich, cat #459836) stocks of 1 mM cationic lipids (KC3, KC3-OA, KC3-PA, KC3-C17 and KC3-C17(C8:1)) were prepared and stored at −20° C. Prior to the experiment, 75 μl of a lipid stock was mixed with 75 μl of ultra-pure water (Rx Biosciences, cat #P01-UPW02-1000) to make 0.5 mM of cationic lipids and 5 mM of linoleic acid respectively. A combined stock in water of 10% H2O2 (Sigma-Aldrich, cat #H1009) and 1 mM of Fe(III)Cl (Sigma-Aldrich, cat #372870) was freshly by prepared prior to the experiment. To make 1% final concentration of H2O2 and 100 μM Fe(III)Cl, 15 μl of 10% H2O2/1 mM Fe(III)Cl stock was added to 135 μl of individual lipids The liposomes and individual lipids were incubated with H2O2/Fe(III)Cl at 37° C. and then 5 μl from each sample was taken at different time points (0, 24, 48, 72 and 96 hours) and dissolved in 90 μl of MeOH for HPLC analysis. Degradation of the main lipid peak was analyzed using Thermo Scientific Vanquish Flex UHPLC occupied with Charged Aerosol Detector (CAD) and Phenomenex™ Kinetex C8 column (L=150 mm, D=2.1 mm, Particle Size=1.7 μm, 100 A).
The data are presented as a percentage of the main lipid peak measured at different time points relative to the lipid peak measured at time zero.

[3] = Apparent solubility of phosphatidylserine salts in ethanol (shake flask); details: for Solubility, mM phosphatidylserine: 100% ethanol, room temperature, 24 hours, N=3
Experimental: Apparent solubilities of phosphatidylserine salts in ethanol were determined by shake flask technique. Sodium and ammonium salts of phosphatidylserines in the powder form were obtained from Avanti Polar Lipids (Alabama, USA). Aliquots of phosphatidylserine salt powder were placed in 12×75 borosilicate glass tubes in triplicate. Three mL of 200 proof ethanol (catalog number E-7023, MilliporeSigma, USA) were added, the tubes were closed with polyethylene snap caps, agitated using vortex mixer for 10-15 s to obtain uniform suspensions, and placed in a horizontal position on a rocking platform at room temperature (20-22° C.) overnight. The ambient temperature at the end of incubation was 20.4-20.9° C. After 24 hours incubation, the suspensions were visually checked for the presence of a solid phase, allowed to settle under gravity, and the supernatant solutions were passed through a 0.2-μm PTFE syringe membrane filters. The first 0.5 ml of the filtrate was discarded, the next 1 ml was collected, and phosphatidylserine in the filtrates was quantified by phospholipid phosphate assay as follows: 20 μL aliquots of the filtrate were taken in triplicate into glass tubes, ethanol was evaporated in a stream of argon at 70° C., and the residue was digested in a mixture of 60 μL concentrated sulfuric acid and 20 μL 30% hydrogen peroxide for 10 min at 180-190° C. The digested samples were diluted with 1 mL of deionized water, 20 μL of 10% sodium sulfite was added to destroy any residual peroxide, and the samples were incubated on a boiling water bath for 15 min to hydrolyze any condensed phosphate species. The samples were chilled down to room temperature, mixed with 0.2 mL of 2% (w/w) ammonium molybdate solution and 20 μL of 10% (w/w) ascorbic acid solution, incubated on a boiling water bath for 10 min, and chilled down in a water bath at room temperature. The phosphate concentration was determined from the optical density of the formed blue phosphomolybdic acid at 825 nm using five-point standard curve from concurrently run standards prepared from the NIST-traceable commercial phosphate standard solution diluted to cover the range of 0-2 mM phosphate (coefficient of determination R^2>0.9999). Solubility of phosphatidylserine salts was expressed in molarity units of phosphatidylserine (Table 40). The data are average f SD (N=3).

% of main lipid peak to To, 24 h. [2] [%] | % of main lipid peak to To, 48 h. [2] [%] | % of main lipid peak to To, 72 h. [2] [%] | Compound | Solubility, mM phosphatidylserine [3] [mM] | also measured
62.7 ± 0.1 | 59.2 ± 0.8 | 60.2 ± 0.6 | CCCCCC/C=C\CCCCCCCCC1(CCCCCCCC/C=C\CCCCCC)OC[C@H](CCCN(C)C)O1 [KC3-PA, 3-((S)-2,2-di((Z)-hexadec-9-en-1-yl)-1,3-dioxolan-4-yl)-N,N-dimethylpropan-1-amine] |  | 
88.9 ± 0.5 | 84.6 ± 0.9 | 79.0 ± 0.1 | CCCCCCCC/C=C\CCCCCCCCC1(CCCCCCCC/C=C\CCCCCCCC)OC[C@H](CCCN(C)C)O1 [KC3-OA, 3-((S)-2,2-di((Z)-octadec-9-en-1-yl)-1,3-dioxolan-4-yl)-N,N-dimethylpropan-1-amine] |  | 
92.9 ± 0.3 | 91.8 ± 1.2 | 90.2 ± 1.2 | CCCCCCCCCCCCCCCCCC1(CCCCCCCCCCCCCCCCC)OC[C@H](CCCN(C)C)O1 [KC3-17, (S)-3-(2,2-diheptadecyl-1,3-dioxolan-4-yl)-N,N-dimethylpropan-1-amine] |  | 

Second part, the compound before the results:

Compound | % of main lipid peak to To, 24 h. [2] [%] | % of main lipid peak to To, 48 h. [2] [%] | % of main lipid peak to To, 72 h. [2] [%] | Solubility, mM phosphatidylserine [3] [mM] | also measured
CCCCC/C=C\CCCC/C=C\CCCCC(=O)OC[C@H](CCCN(C)C)OC(=O)CCCC/C=C\CCCC/C=C\CCCCC [UO-7] |  |  |  |  | % of parent lipid peak at time 0, 24 h [1]: 80 ± 1.7%; % of parent lipid peak at time 0, 48 h [1]: 71 ± 0.8%; % of parent lipid peak at time 0, 72 h [1]: 62 ± 1.0%
CCCCC/C=C\C/C=C\CCCCCCCCC1(CCCCCCCC/C=C\C/C=C\CCCCC)OCC(CCCN(C)C)O1 (stereo not drawn) [KC3, reference compound] | 11.2 ± 1.0 | 10.5 ± 0.5 | 0 ± 0 |  | degradation under forced oxidation with H2O2 ([2]; relative to other cationic lipids, FIG. 18): fastest degradation
CCCCC/C=C\CCCC/C=C\CCCCC(=O)OC[C@H](CCN(C)CCO)OC(=O)CCCC/C=C\CCCC/C=C\CCCCC [UO-6] |  |  |  |  | % of parent lipid peak at time 0, 24 h [1]: 58 ± 0.8%; % of parent lipid peak at time 0, 48 h [1]: 32 ± 1.3%; % of parent lipid peak at time 0, 72 h [1]: 22 ± 1.8%
CCCCCCCCCCCCCCCC(=O)OC[C@H](COP(=O)(O)OC[C@H](N)C(=O)[O-])OC(=O)CCCCCCCCCCCCCCC.[Na+] [DPPS sodium] |  |  |  | 0.201 ± 0.004 | 
CCCCCCCCCCCCCCCCCC(=O)OC[C@H](COP(=O)(O)OC[C@H](N)C(=O)O)OC(=O)CCCCCCCCCCCCCCCCC.N [DSPS ammonium] |  |  |  | 0.034 ± 0.004 | 
CCCCCCCCCCCCCCCC(=O)OC[C@H](COP(=O)(O)OC[C@H](N)C(=O)O)OC(=O)CCCCCCCCCCCCCCC.N [DPPS ammonium] |  |  |  | 0.865 ± 0.060 | ethanol solubility ([3]; vs DSPS ammonium and the sodium salts): several-fold higher ethanol solubility
CCCCCCCCCCCCCCCCCC(=O)OC[C@H](COP(=O)(O)OC[C@H](N)C(=O)[O-])OC(=O)CCCCCCCCCCCCCCCCC.[Na+] [DSPS sodium] |  |  |  | 0.111 ± 0.009 | 
CCCCCCCC/C=C\CCCCCCCC1(CCCCCCC/C=C\CCCCCCCC)OC[C@H](CCCN(C)C)O1 [KC3-17 (C8:1), 3-((S)-2,2-di((Z)-heptadec-8-en-1-yl)-1,3-dioxolan-4-yl)-N,N-dimethylpropan-1-amine] | 66.1 ± 0.6 | 58.4 ± 1.5 | 45.9 ± 4.7 |  | 
